Data on one compound can be found in ChEMBL document CHEMBL1135700, “Design, synthesis and activity of ascorbic acid prodrugs of nipecotic, kynurenic and diclophenamic acids, liable to increase neurotropic activity” (2002).

The experiment has as its system Mus musculus. Kind of experiment: Compound administered at a concentration of 0.75 mmol/kg intraperitoneally was evaluated for its effect on pentylenetetrazole induced convulsions in mice, measured as latency to convulsion.

`C1CCc2nnnn2CC1.O=C1O[C@H]([C@@H](O)COC(=O)C2CCCNC2)C(O)=C1O` (stereo partly specified) showed a Latency of 922 s.
